Source: PubChem BioAssay AID248 (DTP/NCI, 2004)
“And” between values parts separate entries of the source, which are not always exact repeats. Identical values can stand only once. Inconclusive results and toxic doses are left out. No stated cut-off is given here; in the data, active means T/C of 150% or more; inactive means T/C below 125%.

Test system: L1210 leukemia ip in BDF1 mice, survival T/C
Assay: NCI In Vivo Anticancer Drug Screen. Data for tumor model L1210 Leukemia (intraperitoneal) in B6D2F1 (BDF1) mice
Conditions: higher = longer survival
Method in brief: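 Read-out is survival time, reported as the treated-group measurement over the vehicle-control measurement.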

[1] = endpoint: mean survival time, dose: 50.0 mg/kg/injection, schedule: Q01DX009 (ip), vehicle: Klucel (hydroxypropylcellulose) (HPC)
[2] = endpoint: mean survival time, dose: 100.0 mg/kg/injection, schedule: Q01DX009 (ip), vehicle: Klucel (hydroxypropylcellulose) (HPC)
[3] = endpoint: mean survival time, dose: 100.0 mg/kg/injection, schedule: Q04DX003 (ip), vehicle: Klucel (hydroxypropylcellulose) (HPC)
[4] = endpoint: mean survival time, dose: 200.0 mg/kg/injection, schedule: Q01DX009 (ip), vehicle: Klucel (hydroxypropylcellulose) (HPC)
[5] = endpoint: mean survival time, dose: 200.0 mg/kg/injection, schedule: Q04DX003 (ip), vehicle: Klucel (hydroxypropylcellulose) (HPC)
[6] = endpoint: mean survival time, dose: 400.0 mg/kg/injection, schedule: Q04DX003 (ip), vehicle: Klucel (hydroxypropylcellulose) (HPC)
[7] = endpoint: mean survival time, dose: 400.0 mg/kg/injection, schedule: Q01DX009 (ip), vehicle: Klucel (hydroxypropylcellulose) (HPC)
[8] = endpoint: mean survival time, dose: 100.0 mg/kg/injection, schedule: Q04DX003 (ip), vehicle: saline with Tween-80
[9] = endpoint: mean survival time, dose: 400.0 mg/kg/injection, schedule: Q04DX003 (ip), vehicle: saline with Tween-80
[10] = endpoint: mean survival time, dose: 200.0 mg/kg/injection, schedule: Q04DX003 (ip), vehicle: saline with Tween-80
[11] = endpoint: mean survival time, dose: 100.0 mg/kg/injection, schedule: Q01DX001 (ip), vehicle: carboxymethylcellulose (CMC)
[12] = endpoint: mean survival time, dose: 200.0 mg/kg/injection, schedule: Q01DX001 (ip), vehicle: carboxymethylcellulose (CMC)
[13] = endpoint: mean survival time, dose: 400.0 mg/kg/injection, schedule: Q01DX001 (ip), vehicle: carboxymethylcellulose (CMC)
[14] = endpoint: mean survival time, dose: 25.0 mg/kg/injection, schedule: Q04DX002 (ip), vehicle: saline with Tween-80
[15] = endpoint: mean survival time, dose: 50.0 mg/kg/injection, schedule: Q04DX002 (ip), vehicle: saline with Tween-80
[16] = endpoint: mean survival time, dose: 100.0 mg/kg/injection, schedule: Q01DX009 (ip), vehicle: saline
[17] = endpoint: mean survival time, dose: 100.0 mg/kg/injection, schedule: Q04DX003 (ip), vehicle: saline
[18] = endpoint: mean survival time, dose: 200.0 mg/kg/injection, schedule: Q01DX009 (ip), vehicle: saline
[19] = endpoint: mean survival time, dose: 200.0 mg/kg/injection, schedule: Q04DX003 (ip), vehicle: saline
[20] = endpoint: mean survival time, dose: 400.0 mg/kg/injection, schedule: Q04DX003 (ip), vehicle: saline
[21] = endpoint: mean survival time, dose: 50.0 mg/kg/injection, schedule: Q04DX003 (ip), vehicle: Klucel (hydroxypropylcellulose) (HPC)

Measured: T/C

Cc1ccc(NC(=O)OCCOc2cc(C)c(Cl)c(C)c2)c([N+](=O)[O-])c1
inactive: [1] 95 % of control | [2] 95 % of control | [3] 90 % of control | [4] 91 % of control | [5] 97 % of control | [6] 92 % of control

COc1c(C)ccc(/C=N/NC(=O)c2ccncc2)c1C
inactive: endpoint: mean survival time, dose: 100.0 mg/kg/injection, schedule: Q04DX002 (ip), vehicle: carboxymethylcellulose (CMC) 95 % of control | endpoint: mean survival time, dose: 200.0 mg/kg/injection, schedule: Q04DX002 (ip), vehicle: carboxymethylcellulose (CMC) 95 % of control | endpoint: mean survival time, dose: 400.0 mg/kg/injection, schedule: Q04DX002 (ip), vehicle: carboxymethylcellulose (CMC) 92 % of control

NC(N)=N/N=C/C(=N/N=C(N)N)c1ccccc1
inactive: endpoint: mean survival time, dose: 30.0 mg/kg/injection, schedule: Q01DX Z (oral), vehicle: carboxymethylcellulose (CMC) 108 % of control | endpoint: mean survival time, dose: 60.0 mg/kg/injection, schedule: Q01DX Z (oral), vehicle: carboxymethylcellulose (CMC) 115 % of control | endpoint: mean survival time, dose: 120.0 mg/kg/injection, schedule: Q01DX Z (oral), vehicle: carboxymethylcellulose (CMC) 105 % of control | endpoint: mean survival time, dose: 240.0 mg/kg/injection, schedule: Q01DX Z (oral), vehicle: carboxymethylcellulose (CMC) 103 % of control

CN(Cc1ccccc1Cl)C(=O)Nc1ccccc1
inactive: [2] 101 % of control | [4] 106 % of control | [7] 101 % of control

CC(Cl)CN(C)c1ccc2ccccc2c1 (centres undefined)
inactive: endpoint: median survival time, dose: 100.0 mg/kg/injection, schedule: Q01DX009 (ip), vehicle: Klucel (hydroxypropylcellulose) (HPC) 97 % of control | endpoint: median survival time, dose: 200.0 mg/kg/injection, schedule: Q01DX009 (ip), vehicle: Klucel (hydroxypropylcellulose) (HPC) 87 % of control

c1ccc(-c2oc(-c3ccccc3)c(-c3ccccc3)c2-c2ccccc2)cc1
inactive: [8] 93 % of control | [9] 93 % of control

O=c1c2ccccc2oc2ccccc12
inactive: endpoint: mean survival time, dose: 100.0 mg/kg/injection, schedule: Q01DX001 (ip), vehicle: saline with Tween-80 102 % of control | [8] 96 % of control | endpoint: mean survival time, dose: 200.0 mg/kg/injection, schedule: Q01DX001 (ip), vehicle: saline with Tween-80 102 % of control | [10] 97 % of control | endpoint: mean survival time, dose: 400.0 mg/kg/injection, schedule: Q01DX001 (ip), vehicle: saline with Tween-80 102 % of control

O=C1C2C3C=CC(C3)C2C(=O)C2C3C=CC(C3)C12 (centres undefined)
inactive: endpoint: mean survival time, dose: 50.0 mg/kg/injection, schedule: Q01DX001 (ip), vehicle: carboxymethylcellulose (CMC) 103 % of control | [11] 93 % of control | [12] 100 % of control | [13] 112 % of control

CCc1ccc(C(=O)CCCCl)cc1
inactive: [8] 94 % of control | [10] 100 % of control | [9] 86 % of control

CC12CCC(O)CC1=CCC1C2CCC2(C)C1CCC2(O)C#CCN(CCCl)CCCl (centres undefined)
inactive: endpoint: mean survival time, dose: 50.0 mg/kg/injection, schedule: Q04DX003 (sc), vehicle: steriod suspending solution 93 % of control | endpoint: mean survival time, dose: 100.0 mg/kg/injection, schedule: Q04DX003 (sc), vehicle: steriod suspending solution 112 % of control | endpoint: mean survival time, dose: 200.0 mg/kg/injection, schedule: Q04DX003 (sc), vehicle: steriod suspending solution 100 % of control | endpoint: mean survival time, dose: 400.0 mg/kg/injection, schedule: Q04DX003 (sc), vehicle: steriod suspending solution 99 % of control

CN1CCSC1=S
inactive: [1] 92 % of control | [2] 100 % of control | [3] 105 % of control | [4] 105 % of control | [5] 105 % of control | [6] 94 % of control

CCCCCCCCCCCCC(CCC)(OO)C(=O)OC (centres undefined)
inactive: [14] 98 % of control | [15] 87 % of control | endpoint: mean survival time, dose: 100.0 mg/kg/injection, schedule: Q04DX002 (ip), vehicle: saline with Tween-80 98 % of control

N=C(N)SCc1cccc([N+](=O)[O-])c1
inactive: [14] 102 % of control | [15] 102 % of control

CC(C)(C)OC(=O)c1ccc(C#N)cc1
inactive: [11] 96 % of control | [12] 100 % of control | [13] 100 % of control

CN(C)c1ccc(/C=N/NC=O)c(Cl)c1
inactive: endpoint: mean survival time, dose: 10.0 mg/kg/injection, schedule: Q01DX001 (ip), vehicle: acetone 103 % of control | endpoint: mean survival time, dose: 20.0 mg/kg/injection, schedule: Q01DX001 (ip), vehicle: acetone 110 % of control | endpoint: mean survival time, dose: 40.0 mg/kg/injection, schedule: Q01DX001 (ip), vehicle: acetone 95 % of control

Cc1cc[n+](CCC(N)=O)cc1
inactive: [16] 95 % of control | [17] 93 % of control | [18] 93 % of control | [19] 98 % of control | endpoint: mean survival time, dose: 400.0 mg/kg/injection, schedule: Q01DX009 (ip), vehicle: saline 93 % of control | [20] 102 % of control

O/C(=C\C(=S)S)c1ccc(Cl)cc1
inactive: endpoint: mean survival time, dose: 0.06 mg/kg/injection, schedule: Q01DX009 (ip), vehicle: saline with Tween-80 103 % of control | endpoint: mean survival time, dose: 0.12 mg/kg/injection, schedule: Q01DX009 (ip), vehicle: saline with Tween-80 105 % of control | endpoint: mean survival time, dose: 0.25 mg/kg/injection, schedule: Q01DX009 (ip), vehicle: saline with Tween-80 98 % of control | endpoint: mean survival time, dose: 0.5 mg/kg/injection, schedule: Q01DX009 (ip), vehicle: saline with Tween-80 112 % of control and 120 % of control | endpoint: mean survival time, dose: 1.0 mg/kg/injection, schedule: Q01DX009 (ip), vehicle: saline with Tween-80 102 % of control and 107 % of control | endpoint: mean survival time, dose: 1.0 mg/kg/injection, schedule: Q04DX003 (ip), vehicle: saline with Tween-80 103 % of control | endpoint: mean survival time, dose: 2.0 mg/kg/injection, schedule: Q01DX009 (ip), vehicle: saline with Tween-80 107 % of control | endpoint: mean survival time, dose: 2.0 mg/kg/injection, schedule: Q04DX003 (ip), vehicle: saline with Tween-80 97 % of control | endpoint: mean survival time, dose: 4.0 mg/kg/injection, schedule: Q04DX003 (ip), vehicle: saline with Tween-80 97 % of control | endpoint: mean survival time, dose: 8.0 mg/kg/injection, schedule: Q04DX003 (ip), vehicle: saline with Tween-80 105 % of control

OC1CCCC2CCC[N-]C12.OC1CCCC2CCC[N-]C12.[Mn+2] (centres undefined)
inactive: [21] 106 % of control | [3] 113 % of control | [5] 106 % of control

O=C1c2[nH]c3ccccc3c2CC2CC12 (centres undefined)
inactive: endpoint: mean survival time, dose: 75.0 mg/kg/injection, schedule: Q01DX001 (ip), vehicle: saline 96 % of control | endpoint: mean survival time, dose: 150.0 mg/kg/injection, schedule: Q01DX001 (ip), vehicle: saline 104 % of control | endpoint: mean survival time, dose: 300.0 mg/kg/injection, schedule: Q01DX001 (ip), vehicle: saline 101 % of control

CC(C)NC(=O)Oc1ccc(Br)cc1Br
inactive: [2] 109 % of control | [4] 104 % of control | [7] 113 % of control

COc1ccc(NC(=O)OCCN(CCOC(=O)Nc2ccc(OC)cc2)c2cccc(C)c2)cc1
inactive: endpoint: mean survival time, dose: 100.0 mg/kg/injection, schedule: Q01DX001 (ip), vehicle: saline 100 % of control | endpoint: mean survival time, dose: 200.0 mg/kg/injection, schedule: Q01DX001 (ip), vehicle: saline 90 % of control | endpoint: mean survival time, dose: 400.0 mg/kg/injection, schedule: Q01DX001 (ip), vehicle: saline 90 % of control

CC(=O)OS(=O)(=O)c1ccc(C)cc1
inactive: [16] 98 % of control | [17] 94 % of control | [18] 90 % of control | [19] 92 % of control | [20] 89 % of control

COc1ccc(Cl)cc1NC(=O)c1ccccc1Cl
inactive: [2] 95 % of control | [4] 102 % of control | [7] 101 % of control

O=C(O)/C(=C\c1ccc(Cl)cc1)c1cccc2ccccc12
inactive: [21] 92 % of control | [2] 98 % of control | [4] 100 % of control | [5] 87 % of control

O=S(=O)(c1ccccc1)c1ccccc1
inactive: [3] 104 % of control | [8] 95 % of control | [5] 111 % of control | [10] 103 % of control | [6] 87 % of control | [9] 89 % of control

CCOC(=O)c1c(-c2ccccc2)csc1N
inactive: endpoint: mean survival time, dose: 50.0 mg/kg/injection, schedule: Q04DX003 (ip), vehicle: saline with Tween-80 97 % of control | [8] 94 % of control | [10] 90 % of control

BrP(Nc1cccc(NP(Br)(c2ccccc2)(c2ccccc2)c2ccccc2)c1)(c1ccccc1)(c1ccccc1)c1ccccc1
inactive: endpoint: mean survival time, dose: 10.0 mg/kg/injection, schedule: Q01DX001 (ip), vehicle: saline 99 % of control | endpoint: mean survival time, dose: 20.0 mg/kg/injection, schedule: Q01DX001 (ip), vehicle: saline 99 % of control
